Results: PubChem BioAssay AID248 (DTP/NCI, 2004)
Several values for one entry are separate records, joined by “and”; a condition that tells them apart may be missing. Equal entries are not always repeated. Toxic doses and inconclusive results are not listed. No stated cut-off is given here; in the data, active means T/C of 150% or more; inactive means T/C below 125%.

Test system: L1210 leukemia ip in BDF1 mice, survival T/C
Test: NCI In Vivo Anticancer Drug Screen. Data for tumor model L1210 Leukemia (intraperitoneal) in B6D2F1 (BDF1) mice
Settings: endpoint: mean survival time, higher = longer survival
Method in brief: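 Read-out is survival time, reported as the treated-group measurement over the vehicle-control measurement.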

[1] = dose: 100.0 mg/kg/injection, schedule: Q01DX009 (ip), vehicle: Klucel (hydroxypropylcellulose) (HPC)
[2] = dose: 100.0 mg/kg/injection, schedule: Q04DX003 (ip), vehicle: Klucel (hydroxypropylcellulose) (HPC)
[3] = dose: 200.0 mg/kg/injection, schedule: Q01DX009 (ip), vehicle: Klucel (hydroxypropylcellulose) (HPC)
[4] = dose: 200.0 mg/kg/injection, schedule: Q04DX003 (ip), vehicle: Klucel (hydroxypropylcellulose) (HPC)
[5] = dose: 400.0 mg/kg/injection, schedule: Q01DX009 (ip), vehicle: Klucel (hydroxypropylcellulose) (HPC)
[6] = dose: 400.0 mg/kg/injection, schedule: Q04DX003 (ip), vehicle: Klucel (hydroxypropylcellulose) (HPC)
[7] = dose: 100.0 mg/kg/injection, schedule: Q01DX001 (ip), vehicle: carboxymethylcellulose (CMC)
[8] = dose: 200.0 mg/kg/injection, schedule: Q01DX001 (ip), vehicle: carboxymethylcellulose (CMC)
[9] = dose: 400.0 mg/kg/injection, schedule: Q01DX001 (ip), vehicle: carboxymethylcellulose (CMC)
[10] = dose: 100.0 mg/kg/injection, schedule: Q04DX002 (ip), vehicle: Klucel (hydroxypropylcellulose) (HPC)
[11] = dose: 50.0 mg/kg/injection, schedule: Q01DX001 (ip), vehicle: carboxymethylcellulose (CMC)
[12] = dose: 100.0 mg/kg/injection, schedule: Q04DX003 (ip), vehicle: saline with Tween-80
[13] = dose: 200.0 mg/kg/injection, schedule: Q04DX003 (ip), vehicle: saline with Tween-80
[14] = dose: 400.0 mg/kg/injection, schedule: Q04DX003 (ip), vehicle: saline with Tween-80
[15] = dose: 100.0 mg/kg/injection, schedule: Q01DX001 (ip), vehicle: saline
[16] = dose: 200.0 mg/kg/injection, schedule: Q01DX001 (ip), vehicle: saline
[17] = dose: 100.0 mg/kg/injection, schedule: Q04DX002 (ip), vehicle: saline with Tween-80
[18] = dose: 200.0 mg/kg/injection, schedule: Q04DX002 (ip), vehicle: saline with Tween-80

Measured: T/C

CCOC(=O)C(C)NCc1ccccc1 (configuration not stated)
inactive: [1] 94 % of control | [2] 98 % of control | [3] 111 % of control | [4] 93 % of control | [5] 103 % of control | [6] 96 % of control

COC(=O)/C=C/c1c[nH]c2nccnc12
inactive: dose: 100.0 mg/kg/injection, schedule: Q01DX009 (ip), vehicle: water 98 % of control | dose: 100.0 mg/kg/injection, schedule: Q04DX003 (ip), vehicle: water 101 % of control | dose: 200.0 mg/kg/injection, schedule: Q01DX009 (ip), vehicle: water 95 % of control | dose: 200.0 mg/kg/injection, schedule: Q04DX003 (ip), vehicle: water 98 % of control | dose: 400.0 mg/kg/injection, schedule: Q01DX009 (ip), vehicle: water 97 % of control | dose: 400.0 mg/kg/injection, schedule: Q04DX003 (ip), vehicle: water 102 % of control

CC(C)c1ccc(/C(=N\N=C(N)N)C2CC2)cc1
inactive: dose: 15.0 mg/kg/injection, schedule: Q01DX Z (ip), vehicle: carboxymethylcellulose (CMC) 93 % of control | dose: 30.0 mg/kg/injection, schedule: Q01DX Z (ip), vehicle: carboxymethylcellulose (CMC) 95 % of control | dose: 60.0 mg/kg/injection, schedule: Q01DX Z (ip), vehicle: carboxymethylcellulose (CMC) 92 % of control and 93 % of control | dose: 120.0 mg/kg/injection, schedule: Q01DX Z (ip), vehicle: carboxymethylcellulose (CMC) 95 % of control and 96 % of control | dose: 120.0 mg/kg/injection, schedule: Q01DX Z (oral), vehicle: carboxymethylcellulose (CMC) 101 % of control | dose: 240.0 mg/kg/injection, schedule: Q01DX Z (ip), vehicle: carboxymethylcellulose (CMC) 93 % of control | dose: 240.0 mg/kg/injection, schedule: Q01DX Z (oral), vehicle: carboxymethylcellulose (CMC) 110 % of control | dose: 480.0 mg/kg/injection, schedule: Q01DX Z (oral), vehicle: carboxymethylcellulose (CMC) 102 % of control | dose: 960.0 mg/kg/injection, schedule: Q01DX Z (oral), vehicle: carboxymethylcellulose (CMC) 102 % of control

O=[N+]([O-])c1ccc2cnn(CCO)c2c1
inactive: [7] 101 % of control | [8] 113 % of control | [9] 101 % of control

CSc1nc(N)c(N=Nc2ccc(S(=O)(=O)Nc3nccc(C)n3)cc2)c(=O)[nH]1
inactive: [7] 86 % of control | [8] 97 % of control | [9] 97 % of control

Cc1cncn1CC(=O)c1ccccc1
inactive: dose: 25.0 mg/kg/injection, schedule: Q01DX009 (ip), vehicle: saline 104 % of control and 105 % of control | dose: 25.0 mg/kg/injection, schedule: Q04DX002 (ip), vehicle: saline 101 % of control and 105 % of control | dose: 50.0 mg/kg/injection, schedule: Q01DX009 (ip), vehicle: saline 103 % of control and 104 % of control | dose: 50.0 mg/kg/injection, schedule: Q04DX002 (ip), vehicle: saline 101 % of control and 108 % of control | [10] 93 % of control | dose: 100.0 mg/kg/injection, schedule: Q04DX002 (ip), vehicle: saline 103 % of control

O=C(O)C1C(C(=O)O)C(c2ccccc2)C1c1ccccc1 (configuration not stated)
inactive: [11] 90 % of control | [7] 97 % of control | [8] 103 % of control | [9] 90 % of control

Cc1ccc(S(=O)(=O)N=P(c2ccccc2)(c2ccccc2)c2ccccc2)cc1
inactive: [11] 90 % of control | [7] 95 % of control | [12] 86 % of control | [8] 92 % of control | [13] 86 % of control | [9] 86 % of control | [14] 91 % of control

O=C1C=CC(=O)N1C(c1ccccc1)c1ccccc1
inactive: dose: 12.5 mg/kg/injection, schedule: Q01DX009 (ip), vehicle: Klucel (hydroxypropylcellulose) (HPC) 102 % of control | dose: 25.0 mg/kg/injection, schedule: Q01DX009 (ip), vehicle: Klucel (hydroxypropylcellulose) (HPC) 102 % of control | dose: 50.0 mg/kg/injection, schedule: Q01DX009 (ip), vehicle: Klucel (hydroxypropylcellulose) (HPC) 102 % of control | dose: 50.0 mg/kg/injection, schedule: Q04DX002 (ip), vehicle: Klucel (hydroxypropylcellulose) (HPC) 94 % of control | [10] 88 % of control | dose: 200.0 mg/kg/injection, schedule: Q04DX002 (ip), vehicle: Klucel (hydroxypropylcellulose) (HPC) 101 % of control and 116 % of control and 91 % of control | dose: 400.0 mg/kg/injection, schedule: Q04DX002 (ip), vehicle: Klucel (hydroxypropylcellulose) (HPC) 91 % of control

CC(=O)OC1=C(C)C2=C3OC(=O)C(C)=C3CC[C@@]2(C)CC1
inactive: [15] 97 % of control | [16] 101 % of control | dose: 400.0 mg/kg/injection, schedule: Q01DX001 (ip), vehicle: saline 95 % of control

CN1CCC(CO)(c2ccccc2)C1 (configuration not stated)
inactive: dose: 75.0 mg/kg/injection, schedule: Q01DX001 (ip), vehicle: carboxymethylcellulose (CMC) 96 % of control | dose: 150.0 mg/kg/injection, schedule: Q01DX001 (ip), vehicle: carboxymethylcellulose (CMC) 98 % of control

OC(C[n+]1ccccc1)c1c[nH]c2ccccc12 (configuration not stated)
inactive: dose: 75.0 mg/kg/injection, schedule: Q01DX001 (ip), vehicle: other 107 % of control

CCCCOC(=O)COc1cc(Cl)c(Cl)cc1Cl
inactive: [17] 93 % of control | [18] 104 % of control

Oc1ccc(C2(CCl)OCCO2)cc1
inactive: dose: 25.0 mg/kg/injection, schedule: Q01DX001 (ip), vehicle: saline with Tween-80 98 % of control | dose: 50.0 mg/kg/injection, schedule: Q01DX001 (ip), vehicle: saline with Tween-80 104 % of control | dose: 100.0 mg/kg/injection, schedule: Q01DX001 (ip), vehicle: saline with Tween-80 107 % of control

NC(=O)Nc1cccc(Cl)c1
inactive: dose: 100.0 mg/kg/injection, schedule: Q04DX002 (ip), vehicle: gum acacia 106 % of control | dose: 200.0 mg/kg/injection, schedule: Q04DX002 (ip), vehicle: gum acacia 98 % of control | dose: 400.0 mg/kg/injection, schedule: Q04DX002 (ip), vehicle: gum acacia 106 % of control

CCCCCCCCCCCCOC(=O)C[n+]1cccc(C(=O)NC)c1
inactive: dose: 12.5 mg/kg/injection, schedule: Q04DX003 (ip), vehicle: saline with Tween-80 101 % of control | dose: 25.0 mg/kg/injection, schedule: Q04DX003 (ip), vehicle: saline with Tween-80 97 % of control | dose: 50.0 mg/kg/injection, schedule: Q04DX003 (ip), vehicle: saline with Tween-80 95 % of control

CC(C)C1(C(=O)N2CCCCC2=O)SCCCS1
inactive: [12] 94 % of control | [13] 90 % of control | [14] 92 % of control

Cc1ccc(NC(=S)NC(Cc2ccccc2)c2ccccc2)c(C)c1 (configuration not stated)
inactive: [1] 106 % of control | [2] 98 % of control | [3] 87 % of control | [4] 96 % of control | [5] 101 % of control | [6] 98 % of control

CSc1ccc(OC(=O)Oc2ccc(SC)cc2)cc1
inactive: [7] 97 % of control | [8] 95 % of control | [9] 92 % of control

C/C(CCC(=O)O)=N\NC(=O)COc1ccc(Cl)cc1Cl
inactive: [2] 94 % of control | [4] 98 % of control

COC(=O)NC1CC/C=C\CCC1I (configuration not stated)
inactive: dose: 200.0 mg/kg/injection, schedule: Q04DX002 (ip), vehicle: DMSO 102 % of control

CCCCCCCCCCCCCCCC[N+]1(C)CCC[N+](C)(CCCCCCCCCCCCCCCC)CC1 (configuration not stated)
inactive: dose: 100.0 mg/kg/injection, schedule: Q01DX001 (ip), vehicle: other 111 % of control and 90 % of control | dose: 100.0 mg/kg/injection, schedule: Q04DX002 (ip), vehicle: other 94 % of control and 106 % of control | dose: 200.0 mg/kg/injection, schedule: Q01DX001 (ip), vehicle: other 96 % of control and 90 % of control | dose: 200.0 mg/kg/injection, schedule: Q04DX002 (ip), vehicle: other 97 % of control and 110 % of control | dose: 400.0 mg/kg/injection, schedule: Q01DX001 (ip), vehicle: other 96 % of control and 90 % of control | dose: 400.0 mg/kg/injection, schedule: Q04DX002 (ip), vehicle: other 98 % of control and 106 % of control

CNc1nc2nc[nH]c2c(=S)n1C
inactive: [15] 103 % of control | [16] 100 % of control

OC/C(=C\c1ccccc1)c1ccccc1
inactive: [12] 92 % of control | [13] 94 % of control | [14] 92 % of control

C=CCN(CC=C)C(=O)c1cc(Cl)ccc1Cl
inactive: [17] 97 % of control | [18] 103 % of control | dose: 400.0 mg/kg/injection, schedule: Q04DX002 (ip), vehicle: saline with Tween-80 110 % of control
